From US20240025893A1, “PYRIMIDINE-AND NITROGEN-CONTAINING BICYCLIC COMPOUND” (Asahi Kasei Pharma Corporation, priority 2020, published 2024)

Assays:
human IRAK-4 = human IRAK-4 (Homo sapiens (Human), UniProt Q9NWZ3); assay: Measurement of human IRAK-4 inhibitory activity (TR-FRET, peptide substrate phosphorylation, 10 μM ATP); assay type: biochemical; settings: 1 nM IRAK-4, 10 μM ATP, 23° C., 30 minutes; average values
Procedure: For the measurement of the activity of the human IRAK-4 (Invitrogen, Cat. PV3362), phosphorylation of the IRAK-4 peptide substrate (biotin-KKKKRFSFKKSFKC) by the enzyme in the presence of 10 μM ATP (Sigma-Aldrich, Cat. A7699) was measured by the TR-FRET method. The enzymatic reaction was performed in a reaction buffer containing 50 mM HEPES (pH 7.2), 1 mM DTT, 0.1 mM Na3VO4, 5 mM MgCl2, 1 mM MnCl2, and 0.1% bovine serum albumin. For the measurement of the IRAK-4 inhibitory activity, a test compound was added to the reaction buffer containing 1 nM IRAK-4, 0.5 μM peptide substrate, and 10 μM ATP, and the mixture was incubated at 23° C. for 30 minutes. Then, a detection solution containing an antibody labeled with europium cryptate (0.3 μg/mL, the antibody was prepared by using the IRAK-4 peptide substrate as the antigen), streptavidin-XL665 (2 μg/mL, CisBio, Cat. 610SAXLB), 50 mM HEPES (pH 7.2), 0.1% BSA, 120 mM KF, and 66.7 mM EDTA (all the concentrations of the reagents are final concentrations) was added to terminate the reaction, and then the mixture was further incubated at 23° C. for 60 minutes. Fluorescence intensity was measured at wavelengths of 665 nm and 620 nm with a microplate reader, and the enzymatic activity was calculated as the ratio of fluorescence intensities at 665 nm and 620 nm (665 nm/620 nm).

[1] = system: LPS-stimulated TNFα production in THP-1 cells; assay: LPS-stimulated TNFα production inhibition test using human acute monocytic leukemia cell strain THP-1; assay type: cell-based; settings: LPS 2.5 ng/mL, average values
Procedure: By the THP-1 assay, influence of a test compound on the TNFα production induced by LPS stimulation can be evaluated. The THP-1 cells (ATCC, Cat. TIB-202) were inoculated on a 96-well plate at a density of 1×10^5 cells/160 μL/well, a test compound was added in a volume of 20 μL, and the plate was incubated at 37° C. for 1 hour in a 5% CO2 incubator. Then, LPS in a volume of 20 μL (final concentration 2.5 ng/mL, Sigma, Cat. L2630) was added, and the plate was further incubated for 4 hours. After the incubation, the plate was centrifuged, and 100 μL of the supernatant was taken from each well, and used for evaluation of the amount of TNFα using HTRF (Cisbio, Cat. 62TNFPEB). In the measurement of the amount of TNFα, the supernatant was diluted twice with the medium, and then added to wells of a 384-well plate in a volume of 10 μL, then anti-TNFα-cryptate (5 μL), and anti-TNFα-XL665 (5 μL) were added, and the plate was left standing overnight. The fluorescence intensity ratio for the wavelengths of 620 and 665 nm (620 nm/665 nm) was measured with a microplate reader, and the amount of TNFα in the supernatant was calculated by using a calibration curve. The TNFα production suppression ratio observed with no addition of LPS was defined to be 100%, the TNFα production suppression ratio observed with no addition of the test compound was defined to be 0%, and IC50 of the test compound was calculated by using the 4-parameter logistic model of the data analysis software XLfit (ID Business Solutions Ltd.).

Sequence of human IRAK-4 (Q9NWZ3 whole entry): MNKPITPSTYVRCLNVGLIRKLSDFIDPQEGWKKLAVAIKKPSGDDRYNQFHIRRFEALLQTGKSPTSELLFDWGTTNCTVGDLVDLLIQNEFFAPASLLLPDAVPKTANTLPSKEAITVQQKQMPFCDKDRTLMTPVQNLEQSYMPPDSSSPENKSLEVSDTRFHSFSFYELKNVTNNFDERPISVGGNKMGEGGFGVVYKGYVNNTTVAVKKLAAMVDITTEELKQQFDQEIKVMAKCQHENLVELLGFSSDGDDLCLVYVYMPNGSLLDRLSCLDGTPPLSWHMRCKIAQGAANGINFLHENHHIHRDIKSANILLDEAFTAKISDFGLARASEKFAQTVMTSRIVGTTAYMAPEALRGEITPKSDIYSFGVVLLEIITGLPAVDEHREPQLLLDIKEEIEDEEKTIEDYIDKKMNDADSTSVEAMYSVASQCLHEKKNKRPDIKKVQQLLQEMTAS

| Structure (SMILES) | IC50 (human IRAK-4) | IC50 ([1]; Homo sapiens, THP-1, 4 h) | IC50 ([1]; Homo sapiens, 4 hours) | IC50 ([1]; 4 hours) |
| --- | --- | --- | --- | --- |
| O=C(Nc1nc2ccc(-c3cnc(CO[C@H]4CCC[C@@H]4O)nc3)cc2s1)C1CC2(C1)CC(F)(F)C2 [d-01-06] | 3.62 nM | 174 nM |  |  |
| Cc1cc(C(=O)N2CCN([C@H]3C[C@@H](C(=O)Nc4cc5cc(-c6cnc(CO[C@H]7CCC[C@@H]7O)nc6)ccn5n4)C3)[C@@H](C)C2)ccn1 [e-02-01, (1R,3s)-N-(5-(2-((((1S,2S)-2-Hydroxycyclopentyl)oxy)methyl)pyrimidin-5-yl)pyrazolo[1,5-a]pyridin-2-yl)-3-((S)-2-methyl-4-(2-methylisonicotinoyl)piperazin-1-yl)cyclobutane-1-carboxamide] | 1.43 nM | 77 nM |  |  |
| C[C@H]1CN(C(=O)c2ccc(C(F)(F)F)nc2)CCN1[C@H]1C[C@@H](C(=O)Nc2cc3cc(-c4cnc(CO[C@H]5CCC[C@@H]5O)nc4)ccn3n2)C1 [e-02-03] | 2.23 nM | 67 nM |  |  |
| CCO[C@H]1C[C@@H](C(=O)Nc2nc3ccc(-c4cnc(CO[C@H]5CCC[C@@H]5O)nc4)cc3s2)C1 [d-04-01, (1s,3s)-3-Ethoxy-N-(6-(2-((((1S,2S)-2-hydroxycyclopentyl)oxy)methyl)pyrimidin-5-yl)benzo[d]thiazol-2-yl)cyclobutane-1-carboxamide] | 2.1 nM | 182 nM |  |  |
| C[C@H]1CN(C(=O)C2CC2)CCN1[C@H]1C[C@@H](C(=O)Nc2nc3ccc(-c4cnc(CO[C@H]5CCC[C@@H]5O)nc4)cc3s2)C1 [b-05-02] | 2.47 nM | 56 nM |  |  |
| C[C@H]1CN(C2CC2)CCN1C1CC(C(=O)Nc2nc3ccc(-c4cnc(CO[C@H]5CCC[C@@H]5O)nc4)cc3s2)C1 (stereo partly drawn) [b-08-01, 3-((S)-4-Cyclopropyl-2-methylpiperazin-1-yl)-N-(6-(2-((((1S,2S)-2-hydroxycyclopentyl)oxy)methyl)pyrimidin-5-yl)benzo[d]thiazol-2-yl)cyclobutane-1-carboxamide] | 1.97 nM | 56 nM |  |  |
| O=C(Nc1nc2ccc(-c3cnc(CO[C@H]4CCC[C@@H]4O)nc3)cc2s1)C1C[C@H]1c1cccnc1 (stereo partly shown) [a-01-05] | 2.08 nM | 121 nM |  |  |
| O=C(Nc1nc2ccc(-c3cnc(CO[C@H]4CCC[C@@H]4O)nc3)cc2s1)C1CC(N2CCOC(C(F)(F)F)C2)C1 (stereo partly shown) [b-02-61] | 3.87 nM | 109 nM |  |  |
| O=C(Nc1nc2ccc(-c3cnc(CO[C@H]4CCC[C@@H]4O)nc3)cc2s1)C1CC(N2CCOC3(CCC3)C2)C1 (stereo partly shown) [b-02-63] | 2.39 nM | 159 nM |  |  |
| COc1c(-c2cnc(CO[C@H]3CCC[C@@H]3O)nc2)ccc2nc(NC(=O)[C@@H]3C[C@@H]3F)sc12 [c-02-08] | 2.44 nM | 196 nM |  |  |
| O=C(Nc1nc2ccc(-c3cnc(CO[C@H]4CCC[C@@H]4O)nc3)cc2s1)C1CC(NCC(F)F)C1 (stereo partly shown) [b-02-52] | 2.6 nM |  | 176 nM |  |
| C[C@H]1CN(C(=O)c2cccnc2)CCN1[C@H]1C[C@@H](C(=O)Nc2cc3cc(-c4cnc(CO[C@H]5CCC[C@@H]5O)nc4)ccn3n2)C1 [e-02-12] | 1.9 nM |  |  | 129 nM |
| CO[C@H]1CCN(C2CC(C(=O)Nc3nc4ccc(-c5cnc(CO[C@H]6CCC[C@@H]6O)nc5)cc4s3)C2)C1 (stereo partly shown) [b-02-14] | 2.41 nM | 164 nM |  |  |
| C[C@H]1CN(C(=O)c2ccncc2)CCN1[C@H]1C[C@@H](C(=O)Nc2nc3ccc(-c4cnc(CO[C@H]5CCC[C@@H]5O)nc4)cc3s2)C1 [b-04-13] | 1.7 nM | 27 nM |  |  |
| O=C(Nc1nc2ccc(-c3cnc(CO[C@H]4CCC[C@@H]4O)nc3)cc2s1)C1CC(NC2(C(F)(F)F)CC2)C1 (stereo partly shown) [b-02-57] | 2.62 nM | 119 nM |  |  |
| O=C(Nc1nc2ccc(-c3cnc(CO[C@H]4CCC[C@@H]4O)nc3)cc2s1)C1CC(N2CCC[C@H](F)C2)C1 (stereo partly shown) [b-02-17] | 1.59 nM | 120 nM |  |  |
| C[C@]1(F)C[C@H](C(=O)Nc2nc3ccc(-c4cnc(CO[C@H]5CCC[C@@H]5O)nc4)cc3s2)C1 [d-01-08] | 2.89 nM | 202 nM |  |  |
| Cc1cccc(C(=O)N2CCN([C@H]3C[C@@H](C(=O)Nc4nc5ccc(-c6cnc(CO[C@H]7CCC[C@@H]7O)nc6)cc5s4)C3)[C@@H](C)C2)n1 [b-04-21] | 1.15 nM | 33 nM |  |  |
| O=C(Nc1nc2ccc(-c3cnc(CO[C@H]4CCC[C@@H]4O)nc3)cc2s1)C1CC(N2CCOCC2CC2CC2)C1 (stereo partly shown) [b-02-71] | 2.36 nM | 105 nM |  |  |

| Structure (SMILES) | IC50 (human IRAK-4) | IC50 ([1]; Homo sapiens, THP-1, 4 h) | IC50 ([1]; Homo sapiens, 4 hours) | IC50 ([1]; 4 hours) |
| --- | --- | --- | --- | --- |
| CN(CCO)C1CC(C(=O)Nc2nc3ccc(-c4cnc(CO[C@H]5CCC[C@@H]5O)nc4)cc3s2)C1 (stereo partly shown) [b-02-72] | 1.47 nM | 162 nM |  |  |
| C[C@]1(O)C[C@@H](C(=O)Nc2nc3ccc(-c4cnc(CO[C@H]5CCC[C@@H]5O)nc4)cc3s2)C1 [d-01-02] | 2.75 nM | 165 nM |  |  |
| CC[C@H]1CN(C(=O)C2CCOC2)CCN1C1CC(C(=O)Nc2nc3ccc(-c4cnc(CO[C@H]5CCC[C@@H]5O)nc4)cc3s2)C1 (stereo partly shown) [b-04-18] | 1.11 nM | 30 nM |  |  |
| CC(C)C(=O)N1CCN([C@H]2C[C@@H](C(=O)Nc3cc4cc(-c5cnc(CO[C@H]6CCC[C@@H]6O)nc5)ccn4n3)C2)[C@@H](C)C1 [e-02-07] | 1.33 nM | 152 nM |  |  |
| O=C(Nc1nc2ccc(-c3cnc(CO[C@H]4CCC[C@@H]4O)nc3)cc2s1)C1CC(N2CCOCC23CCC3)C1 (stereo partly shown) [b-02-33] | 1.63 nM | 51 nM |  |  |
| O=C(Nc1nc2ccc(-c3cnc(CO[C@H]4CCC[C@@H]4O)nc3)c(F)c2s1)C1CC1 [a-01-12] | 7.75 nM | 361 nM |  |  |
| N#CC12CC(NC3CC(C(=O)Nc4nc5ccc(-c6cnc(CO[C@H]7CCC[C@@H]7O)nc6)cc5s4)C3)(C1)C2 (stereo partly shown) [b-02-42] | 1.93 nM | 123 nM |  |  |
| COC[C@@H]1CCN(C2CC(C(=O)Nc3nc4ccc(-c5cnc(CO[C@H]6CCC[C@@H]6O)nc5)cc4s3)C2)C1 (stereo partly shown) [b-02-39] | 1.9 nM | 182 nM |  |  |
| CC12CC(NC3CC(C(=O)Nc4nc5ccc(-c6cnc(CO[C@H]7CCC[C@@H]7O)nc6)cc5s4)C3)(C1)C2 (stereo partly shown) [b-02-49] | 2.52 nM | 119 nM |  |  |
| CO[C@@H]1CCN(C2CC(C(=O)Nc3nc4ccc(-c5cnc(CO[C@H]6CCC[C@@H]6O)nc5)cc4s3)C2)C1 (stereo partly shown) [b-02-15] | 2.25 nM | 157 nM |  |  |
| O=C(Nc1nc2ccc(-c3cnc(CO[C@H]4CCC[C@@H]4O)nc3)cc2s1)C1CC(NC2(C(F)(F)F)CCCC2)C1 (stereo partly shown) [b-02-80] | 6.86 nM | 176 nM |  |  |
| CC(=O)N1CCN(C2CC(C(=O)Nc3nc4ccc(-c5cnc(CO[C@H]6CCC[C@@H]6O)nc5)cc4s3)C2)CC1 (stereo partly shown) [b-02-38] | 2.98 nM | 150 nM |  |  |
| CN(C)CC1CC(C(=O)Nc2nc3ccc(-c4cnc(CO[C@H]5CCC[C@@H]5O)nc4)cc3s2)C1 (stereo partly drawn) [d-05-01, 3-((Dimethylamino)methyl)-N-(6-(2-((((1S,2S)-2-hydroxycyclopentyl)oxy)methyl)pyrimidin-5-yl)benzo[d]thiazol-2-yl)cyclobutane-1-carboxamide] | 1.51 nM | 182 nM |  |  |
| C[C@H]1CN(C(=O)c2cccc(C(F)(F)F)n2)CCN1[C@H]1C[C@@H](C(=O)Nc2nc3ccc(-c4cnc(CO[C@H]5CCC[C@@H]5O)nc4)cc3s2)C1 [b-04-19] | 1.38 nM | 39 nM |  |  |
| COCCOCC(=O)N1CCN([C@H]2C[C@@H](C(=O)Nc3nc4ccc(-c5cnc(CO[C@H]6CCC[C@@H]6O)nc5)cc4s3)C2)[C@@H](C)C1 [b-04-06] | 2.37 nM | 64 nM |  |  |
| O=C(Nc1nc2ccc(-c3cnc(CO[C@H]4CCC[C@@H]4O)nc3)cc2s1)C1CC(N2CCOCC3(CC3)C2)C1 (stereo partly shown) [b-02-24] | 1.91 nM | 180 nM |  |  |
| CC[C@H]1COCCN1C1CC(C(=O)Nc2nc3ccc(-c4cnc(CO[C@H]5CCC[C@@H]5O)nc4)cc3s2)C1 (stereo partly shown) [b-02-20] | 4.28 nM | 78 nM |  |  |
| O=C(Nc1nc2ccc(-c3cnc(CO[C@H]4CCC[C@@H]4O)nc3)cc2s1)C1CC2(CCN(C(=O)c3cccnc3)CC2)C1 [d-03-07] | 0.852 nM | 139 nM |  |  |
| O=C(Nc1nc2ccc(-c3cnc(CO[C@H]4CCC[C@@H]4O)nc3)cc2s1)C1CC(N2CCC(F)(F)C2)C1 (stereo partly shown) [b-02-13] | 3.77 nM | 175 nM |  |  |
